Literature values, collected in patent publication US20250127701A1, “Cosmetical use of a topically applicable rinse-of composition (RC)” (Wella Germany GmbH, priority 2023, published 2025).

Tests used:
[1] = target: T1, olfactory receptor OR2AT4 (Homo sapiens, UniProt A6NND4); settings: receptor expressed in the epithelium of human hair follicles
T1 sequence (A6NND4 1-320): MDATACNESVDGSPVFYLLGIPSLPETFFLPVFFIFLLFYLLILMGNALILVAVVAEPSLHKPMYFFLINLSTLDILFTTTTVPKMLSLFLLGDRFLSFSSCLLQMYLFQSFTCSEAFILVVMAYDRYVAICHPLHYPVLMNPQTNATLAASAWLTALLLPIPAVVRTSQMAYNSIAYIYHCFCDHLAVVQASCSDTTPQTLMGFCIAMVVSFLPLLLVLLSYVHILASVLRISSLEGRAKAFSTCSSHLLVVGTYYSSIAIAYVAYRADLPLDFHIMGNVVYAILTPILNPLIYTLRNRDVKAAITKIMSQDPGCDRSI

[2] = tested on: hair shaft, hair matrix keratinocytes; settings: studies have shown

Row | SMILES | Effect on the olfactory receptor OR2AT4 [1] | Effect on anagen duration [2] | Effect on hair shaft elongation [2] | Effect on proliferation of hair matrix keratinocytes [2]
1 | CC1=CCC(CCC(C)C(C)O)C1(C)C (stereo not shown) [Sandal pentanol, 3-methyl-5-(2,2,3-trimethylcyclopent-3-en-1-yl)pentan-2-ol] | stimulatory effect | – | – | –
2 | Cn1c(=O)c2c(ncn2C)n(C)c1=O [caffeine, 1,3,7-trimethylxanthine] | – | prolonges anagen duration | enhances the hair shaft elongation | stimulates the proliferation of hair matrix keratinocytes
